Among the data in BindingDB's records for patent US20240226096 (Poseidon Innovation 1, 2024) are IC50 values, retold here.

This test has as its target T1, Bromodomain-containing protein 4 [368-440] (Homo sapiens, UniProt O60885).
T1 construct: 368-440
Put plainly: BET BRD Assay. The procedure: 3x Complete Substrate plus Inhibitor Solution in Assay Medium (Opti-MEM I Reduced Serum Medium, no phenol red, and no serum) was prepared just before measuring BRET. This solution consisted of a 1:166 dilution of NanoBRET Nano-Glo Substrate plus a 1:500 dilution of Extracellular NanoLuc Inhibitor in Assay Medium. For a 96-well plate, 30 ul of NanoBRET Nano-Glo Substrate, 10 ul of Extracellular NanoLuc Inhibitor and 4,960 ul of Assay Medium were mixed to produce 5 ml of 3x Complete Substrate plus Inhibitor Solution, followed with gently mixing by inversion 5-10 times in a conical tube. (The final concentration of Extracellular NanoLuc Inhibitor in the 3x solution was 60 uM, for a working concentration of 20 uM. Use 3x Complete Substrate plus Inhibitor Solution within 2 hours. Discard any remaining solution). […] Donor emission wavelength (e.g., 450 nm) and acceptor emission wavelength (e.g., 610 nm) were measured by using the GloMax Discover System or other NanoBRET Assay-compatible luminometer (it is recommended measuring BRET within 10 minutes after adding NanoBRET Nano-Glo Substrate plus Extracellular NanoLuc Inhibitor Solution. However, BRET can be measured for up to 2 hours, but there will be some loss of luminescence signal). […]

SMILES strings stand for the structures. pIC50: −log10 of the molar value.

As usually defined, the pIC50 is −log10 of the IC50, conventionally taken in molar units. The low end stands for a large IC50, the high end for a small IC50. Molecule `Cc1cc(-c2ccc(-n3ccn(C)c3=O)c(Cl)c2)c(O)c(-c2cccc(N3CCN(C(C)(C)C)CC3)c2)n1` [US20240226096, Example I-2] gave a pIC50 of 7.99.
